Assay results taken from patent publication US11529338B2, “Compositions and methods for treating cancer” (Cedars-Sinai Medical Center, priority 2017, dated 2022).
pKd: −log10 of the molar value.

Target: T1, OC2-HOX (Homo sapiens, UniProt O95948)
T1 sequence (O95948 426-485 limits assumed): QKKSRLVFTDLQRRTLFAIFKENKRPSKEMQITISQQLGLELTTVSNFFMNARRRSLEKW
Test: Binding to OC2-HOX measured by surface plasmon resonance
Conditions: based on 2:2 Langmuir model simulation of the bimolecular interactions, read-out: binding affinity KD
From the text: FIG. 12A-FIG. 12C depicts in accordance with various embodiments of the invention, CSRM617 derivatives. FIG. 12A depicts chemical structures of CSRM617 derivatives CSRM123 and CSRM843. FIG. 12B depicts dose-dependent binding of CSRM123 and CSRM843 to OC2-HOX, measured by surface plasmon resonance, is shown. […] FIG. 12C depicts IC50 values for compounds CSRM617, CSRM123 and CSRM843 in 22Rv1 and DU145 cell lines.

Row | pKd | SMILES
1 | 5.94 | NC(=O)C1CCCCN1C(=O)NCCc1ccc(O)c(O)c1O (centres unmarked) [CSRM123]
2 | 6.93 | O=C(CNC(=O)Cc1ccc(O)c(O)c1O)NO [CSRM843]
